# Experimental data reported in patent US20230255970A1, “COMPOSITIONS AND METHODS FOR TREATING PROLIFERATIVE DISEASES” (The Broad Institute, Inc., priority 2020, published 2023).
# Experiments:
# [1] = system: H9 human pluripotent stem cells; test: qPCR of YAP1, CTGF and CYR61 in H9 hPSCs; assay type: cell-based; conditions: 24 hrs
# Protocol: (§1) H9 hPSCs (WiCell) were maintained on vitronectin (Thermo Fisher)-coated plates in Essential 8 (E8) medium. The cells were routinely passaged using 0.5 mM EDTA and treated with 5 μM Y-27632 dihydrochloride (Tocris) on the first day. For testing the effects of the small molecules, H9 hPSCs were seeded at 50K cells/cm^2 on vitronectin-coated plates in E8 medium supplemented with 5 μM Y-27632 dihydrochloride (day 0). On day 1, the medium was switched to E8 medium. On day 2, the medium was switched to E8 medium supplemented with the small molecules. Following overnight incubation, the cells were collected for subsequent analysis on day 3.
# The RNA was extracted using TRIzol (Life Technologies) and Direct-zol™ RNA MiniPrep kit (Zymo Research) as per manufacturer instructions. The RNA was reverse transcribed using iScript cDNA synthesis kit (Bio-Rad). The qPCR was performed on CFX Connect (Bio-Rad) using iTaq Universal SYBR Green Supermix (Bio-Rad). GAPDH was used as a reference gene for normalization. The relative gene expression levels were determined using the ddCt method.
# YAP1 [2] = test: YAP1 immunofluorescence in H9 cells; assay type: cell-based, human; conditions: 10 μM, 24 hours
# Protocol: as §1
# The cells were fixed with 4% formaldehyde for 15 mins at room temperature. The cells were permeabilized and blocked with PBS containing 2% BSA and 0.1% Triton-X100. The cells were incubated with a primary antibody against YAP1 (sc-101199) at 1:1000 dilution in a blocking buffer overnight at 4° C. Then, a goat anti-mouse Alexa Fluor 488 conjugated secondary antibody was added for 1 hour at room temperature. […] Images were collected with Olympus FV1200 microscope and analyzed with CellProfiler. […] The cell cytoplasm was determined as the region outside nuclei but within the cell bodies. Then, an average pixel intensity of YAP in the nucleus and cytoplasm was calculated to determine YAP translocation
# KP230 cells = test: qRT-PCR of Yap1 and target genes in KP230 cells; assay type: cell-based, mouse
# Source text: (§2) YAP1 cell culture and treatments: Eisinger lab: Murine KP230 cells, a Yap1-dependent cancer cell line, were derived from a tumor from the KP mouse model (Kras^G12/D; Trp53^f/fl), as described in Eisinger-Mathason, T. S. K. et al., Proc. Natl. Acad. Sci. U.S.A 112 (2015): E3402-11, which is hereby incorporated by reference in its entirety. STS-109 UPS cells were derived from a human UPS tumor and validated by Rebecca Gladdy, MD (Sinai Health System, Toronto, Ontario, Canada). TC32 cells were a gift from Patrick Grohar, MD, PhD (Children's Hospital of Philadelphia). HT-1080, HCT-116, and HEK293T cells were purchased from ATCC. KP230, HT-1080, and HEK-293T cells were grown in DMEM with 10% FBS, 1% L-glutamine, and 1% penicillin/streptomycin (P/S). […]
# YAP1-related qRT-PCR: Total RNA from cultured cells was isolated with the QIAGEN RNeasy mini kit, and cDNA was synthesized with the High-Capacity RNA-to-cDNA kit (Life Technologies). qRT-PCR analysis was performed with TaqMan “best coverage” probes on a ViiA7 instrument. […] Relative expression was calculated using the ddCt method.
# Yap1 [3] = test: Nuclear Yap1 immunofluorescence in KP230 cells; assay type: cell-based, mouse
# Source text: as §2
# YAP1-related immunofluorescence and image analysis: Cells were grown on poly-L-lysine-coated chamber slides were fixed in 4% PFA (15 minutes at room temperature), permeabilized with 0.5% Triton-X100/PBS (15 minutes at room temperature), and blocked with 5% goat serum (Vector Laboratories S-1000; 1 hour at room temperature). […] The ratio of nuclear to total Yap1 expression was determined after subtracting out background GFP signal from no-primary antibody controls.
# [4] = system: TC32 human Ewing's family sarcoma cells; test: Proliferation assay, TC32 cells; assay type: cell-based; conditions: 10 μM daily for 72 hours
# Source text: as §2, with “(P/S). STS-109 cells were cultured in DMEM with 20% FBS, 1% L-glutamine, and 1% P/S. TC32 cells were grown in RPMI with 10% FBS, 1% L-glutamine, and 1% P/S. HCT-116 cells were cultured in McCoy's 5A medium with 10% FBS and 1% P/S. All cells were confirmed to be negative for mycoplasma contamination and were maintained in an incubator at 37C with 5% CO2.” for “(P/S).”
# (§3) NB4A treatment: Cells were treated with 10 μM of each inhibitor or an equivalent volume of DMSO every 24 hours for 3-8 days, and counted with a hemocytometer with trypan blue exclusion daily (KP230, HT-1080, TC32, HCT-116), or every 2 days (STS-109).
# STS-109 human UPS cells = test: Proliferation assay, STS-109 cells; assay type: cell-based; conditions: 10 μM daily
# Source text: as §2, with “(P/S). STS-109 cells were cultured in DMEM with 20% FBS, 1% L-glutamine, and 1% P/S. TC32 cells were grown in RPMI with 10% FBS, 1% L-glutamine, and 1% P/S. HCT-116 cells were cultured in McCoy's 5A medium with 10% FBS and 1% P/S. All cells were confirmed to be negative for mycoplasma contamination and were maintained in an incubator at 37C with 5% CO2.” for “(P/S).”
# as §3
# TAZ = conditions: HT29 cells, six hours; cited from earlier work
compound,measurement,setting,value
"c1ccc(CNc2ncnc3ccccc23)cc1 [BRD-K43796186, N-benzylquinazolin-4-amine]",YAP1 expression,[1],did not affect
same,expression of YAP1 target genes (CTGF and CYR61),[1],increased the expression of YAP1 target genes (CTGF and CYR61) in a dose-dependent manner
same,YAP1 nuclear localization,YAP1 [2],increased YAP1 nuclear localization
same,"transcription of Yap1, its sarcoma target genes (Foxm1, Ccl2, Hbegf, Birc5, Rela) and Amot",KP230 cells,did not regulate transcription
same,Yap1 nuclear localization,Yap1 [3],significantly attenuated
same,proliferation,[4],inhibited the proliferation
same,proliferation,STS-109 human UPS cells,did not affect the proliferation
same,TAZ mRNA z-score,TAZ,2.04
